# Measurements published in patent US5089623A, “Certain imidate insecticides” (Imperial Chemical Industries Plc, priority 1990, dated 1992).
# Assays:
# Format in all cases: in vivo
# [1] = system: Cabbage Looper [Trichoplusia ni (Hubner)]; test: Cabbage looper test (CL); settings: second-instar larvae, 3-5 days, percent in solution
# [2] = system: Aster Leafhopper [Macrosteles fascifrens (Stal)]; test: Aster leafhopper test (LH); settings: adults/nymphs, 48 hours, percent in solution
# [3] = system: Tobacco Budworm [Heliothis virescens (Fabricius)] eggs; test: Tobacco budworm egg test (TBW-E); settings: percent in solution
# [4] = system: Black Bean Aphid [Aphis fabae (Scop.)]; test: Black bean aphid test (BBA); settings: percent of test compound in sprayed solution, 48 hours
# Method: (§1) The compounds in Tables 1 and 2 above were tested for insecticidal activity using the following testing procedures. LC50 values, based on the results of these tests and calculated according to dosage-mortality curves, are expressed in Table 3.
# Black Bean Aphid [Aphis fabae (Scop.)]
# Nasturtium plants (Tropaeolum sp.) approximately 5 cm tall, were transplanted into sandy loam soil in small cups and infested with 25-50 black bean aphids of mixed ages. Twenty-four hours later they were sprayed to the point of runoff with 50-50 acetone-water solutions of the test compounds. Treated plants were held in the greenhouse and mortality was recorded after 48 hours. Test concentrations ranged from 0.05% downward. The LC-50 value is expressed below in Table 3 under the heading "BBA" in terms of percent of the test compound in the sprayed solution.
# [5] = system: Maize weevil [Sitophilus Zeamais (Motschulsky)]; test: Maize weevil test (MW); settings: adult weevils, treated corn seeds, 48 hours, percent in solution
# Procedure, shortened: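 Adult weevils (10) were placed with four corn seeds that had been dipped 2-3 s in compound dissolved in 50:50 acetone:water, then dried, and held at about 25° C. Mortality was scored at 48 h. LC50 was taken from dosage-mortality curves and expressed as percent compound in solution, from a 0.01% top concentration.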
# [6] = system: Housefly [Musca domestica]; test: Housefly insecticidal test (HF); settings: per 25 female houseflies, 48 hours
# [7] = system: Rice water weevil [Lissorhoptrus oryzophilus (Kuschel)]; test: Rice water weevil test (RWW); settings: per weevil, topical, female adults, 48 hours
# Method: as §1
# Rice water weevil [Lissorhoptrus oryzophilus (Kuschel)]
# Test compounds were diluted in acetone. Droplets (1 ul) of test solutions were applied to the ventral abdomens of ten female adult weevils. The treated weevils were placed in containers with wet cotton balls and rice foliage. The containers were covered and kept at a temperature of about 25° C. Mortality was recorded after 48 hours. […] The LC50 values are expressed below in Table 3 under the heading "RWW" in terms of μg of test compound per weevil.
# [8] = system: Beet Armyworm (Spodoptera exigua); test: Beet armyworm test (BAW); settings: second-instar larvae, five days, percent in solution
# Procedure, shortened: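 Sugar beet leaves were dipped 2-3 s in compound diluted in 50-50 acetone-water, dried, then infested with five second-instar larvae in humid dishes. Mortality was scored after five days at concentrations from 0.1% downward. LC50 was taken from dosage-mortality curves as percent compound in solution.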
# [9] = system: Tobacco Budworm [Heliothis virescens (Fabricius)]; test: Tobacco budworm contact test (TBW-C); settings: second-instar larvae, 5 days, percent in solution
# Procedure, shortened: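 Cotton cotyledons dipped 2–3 s in compound in 50:50 acetone–water, dried, then infested with 5 second-instar larvae and held 5 days at high humidity before scoring mortality.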
SMILES,LC50 CL [1],LC50 LH [2],LC50 TBW E [3],LC50 BBA [4],LC50 MW [5],LC50 HF [6],LC50 RWW [7],LC50 BAW [8],LC50 TBW C [9]
C=CCOc1cccc(COC(=Nc2ccc(F)c(Cl)c2)C(C)C)c1 [Compound 479],0.013%,> 0.05%,> 0.1%,> 0.05%,> 0.01%,66 µg,–,–,–
CC(C)C(=Nc1ccc(C(F)(F)F)cc1)OCc1cccc(Cc2ccccc2)c1 [Compound 535],> 0.1%,> 0.05%,–,> 0.05%,> 0.01%,41 µg,–,–,–
CC(C)C(=Nc1ccc(F)c(Cl)c1)OCc1cccc(Cc2ccccc2)c1 [Compound 537],> 0.1%,> 0.05%,–,> 0.05%,> 0.01%,20 µg,–,–,–
CC(C)C(=Nc1ccc(F)c(C(F)(F)F)c1)OCc1ccc(F)c(Oc2ccc(F)cc2)c1 [Compound 277],0.00001%,0.0003%,0.013%,–,> 0.01%,4 µg,0.065 µg,0.005%,0.0005%
C=CCOc1cccc(COC(=Nc2cccc(C(F)(F)F)c2)C(C)C)c1 [Compound 480],0.01%,–,> 0.1%,> 0.05%,–,> 100 µg,–,–,–
CC(C)C(=Nc1ccc(F)c(Cl)c1)OCc1ccc(F)c(Oc2ccc(F)cc2)c1 [Compound 216],0.000007%,0.00025%,0.005%,–,0.0017%,2 µg,0.067 µg,0.0007%,0.00018%
CC(C)C(=Nc1ccc(F)c(Cl)c1F)OCc1cccc(Oc2ccc(F)cc2)c1 [Compound 352],0.000065%,0.0004%,> 0.1%,–,0.0075%,4.6 µg,> 2.5 µg,> 0.1%,0.0004%
CC(C)C(=Nc1ccc(F)c(Cl)c1)OCc1ccc(F)c(Oc2ccc(Cl)cc2)c1 [Compound 267],0.00008%,0.002%,0.015%,–,0.0027%,8.4 µg,0.11 µg,0.0012%,0.0003%
CC(C)C(=Nc1ccc(F)c(F)c1)OCc1ccc(F)c(Oc2ccc(F)cc2)c1 [Compound 278],0.00002%,0.0003%,0.008%,–,0.0063%,3 µg,0.085 µg,0.0012%,0.00026%
CC(C)C(=Nc1ccc(F)c(Cl)c1)OCc1cccc(Oc2ccc(Cl)cc2)c1 [Compound 239],0.00015%,0.002%,0.025%,–,0.006%,14 µg,> 2.5 µg,0.005%,0.0005%
CC(C)C(=Nc1ccc(F)c(Cl)c1)OCc1ccc(F)c(Oc2ccccc2)c1 [Compound 82],0.00018%,0.0001%,0.006%,0.00021%,–,2.5 µg,0.086 µg,0.0025%,0.0008%
CC(C)C(=Nc1ccc(F)c(F)c1F)OCc1ccc(F)c(Oc2ccc(F)cc2)c1 [Compound 349],0.00007%,–,> 0.1%,> 0.05%,> 0.01%,4.9 µg,> 2.5 µg,> 0.1%,0.0004%
CC(C)C(=Nc1ccc(F)c(Cl)c1)OCc1cccc(Oc2ccc(F)cc2)c1 [Compound 89],0.00003%,0.001%,0.04%,–,0.005%,5 µg,> 2.5 µg,0.009%,0.0005%
